Test [1] deals with WI-38. Kind of test: Compound was tested in vitro for cytotoxic activity against HCMV (Human cytomegalovirus) in WI38 cells. Format: functional.
Test [2] relates to WI-38. Description: Compound was tested in vitro for inhibitory activity against HCMV (Human cytomegalovirus) in WI38 cells. The class given is functional, cell-based.
The subject of test [3] is Human betaherpesvirus 5. Kind of test: Compound was tested in vitro for inhibitory activity against HCMV (Human cytomegalovirus). The class given is functional, organism-based.
Test [4] relates to Human betaherpesvirus 5. Description: Compound was tested in vitro for cytotoxic activity against HCMV (Human cytomegalovirus). The class given is functional.
Test [5] relates to F2002 cell line. Description: Compound was tested in vitro for cytotoxic activity against HCMV (Human cytomegalovirus) in Flow 2002 cells. The class given is functional.
Test [6] deals with F2002 cell line. Kind of test: Compound was tested in vitro for inhibitory activity against HCMV (Human cytomegalovirus) in Flow 2002 cells. Format: functional, cell-based.
Test [7] in a line: Compound was tested for selectivity index of […]. Format: functional.
The subject of test [8] is Human betaherpesvirus 5. Kind of test: Compound (up to 100 ug/mL) was tested in vitro for inhibitory activity against HCMV (Human cytomegalovirus); Inactive. The class given is functional, organism-based.

This note sets out measurements from ChEMBL document CHEMBL1130572, “Synthesis and anti HCMV activity of 3,4-disubstituted tetrahydrofuran derived nucleosides and nucleotides: A tethered series of PME derivatives” (Bioorg Med Chem Lett, 1997).

For orientation: CC50 means the concentration at which the toxic effect on the cells reaches its halfway point. Higher therefore signals lower toxicity to the cells. What is called IC50 is the concentration that gives 50% inhibition. Low values mean greater potency, high ones weaker potency.

Values after ≈ are worked out from the molar mass of the structure shown. Active and inactive are the calls of the source. The calls are words filed in the database; no cut-off is given here.

Regarding `Nc1ncnc2c1ncn2C1COCC1O` (stereo not drawn), in the test with WI-38 [1], it took 100 µg/mL (≈ 452 µM) to reach half-maximal cytotoxicity (CC50). Moreover, in the test on WI-38 [2], the IC50 is greater than 50 µg/mL.

Molecule `Nc1nc2c(ncn2COC(CO)CO)c(=O)[nH]1` [GANCICLOVIR] displayed an IC50 in the test on Human betaherpesvirus 5 [3] of 0.1 µg/mL (≈ 0.392 µM). The CC50 with Human betaherpesvirus 5 [4] was greater than 100 µg/mL.

In the case of `Nc1ncnc2c1ncn2[C@@H]1COCC1O` (stereo partly drawn), the CC50 in the test with F2002 cell line [5] was greater than 100 µg/mL. In the test with F2002 cell line [6], the IC50 was greater than 100 µg/mL.

`O=c1ccn([C@@H]2COCC2O)c(=O)[nH]1` (stereo partly drawn) showed a 50% cytotoxic concentration (CC50) with F2002 cell line [5] greater than 100 µg/mL. This molecule yielded an IC50 in the test with F2002 cell line [6] greater than 100 µg/mL.

For `Nc1ccn([C@@H]2COCC2O)c(=O)n1` (stereo partly drawn), the Selectivity index in test [7] came to 33. The CC50 with F2002 cell line [5] came to 100 µg/mL (≈ 507 µM). In the test with F2002 cell line [6], the IC50 stood at 3 µg/mL (≈ 15.2 µM).

On to `O=c1ccn(C2COCC2OCP(=O)(O)O)c(=O)[nH]1` (stereo not drawn), for which the CC50 in the test with F2002 cell line [5] is greater than 100 µg/mL. The half-inhibitory concentration (IC50) with F2002 cell line [6] was greater than 100 µg/mL.

For the molecule `Nc1ccn(C2COCC2O)c(=O)n1` (stereo not drawn), the CC50 in the test on F2002 cell line [5] was 100 µg/mL (≈ 507 µM). The molecule also had an IC50 in the test on F2002 cell line [6] greater than 100 µg/mL.

`N.Nc1ccn(C2COCC2OCP(=O)(O)O)c(=O)n1` (stereo not drawn) showed a CC50 in the test on WI-38 [1] greater than 100 µg/mL. Moreover, the IC50 in the test with WI-38 [2] is greater than 100 µg/mL.

Consider `Nc1ncnc2c1ncn2[C@@H]1COCC1OCP(=O)(O)O` (stereo partly drawn), for which the result with Human betaherpesvirus 5 [8] was inactive.

Regarding `Nc1ncnc2c1ncn2C1COCC1OCP(=O)(O)O` (stereo not drawn), the outcome with Human betaherpesvirus 5 [8] was inactive.

As for `O=c1ccn([C@@H]2COCC2OCP(=O)(O)O)c(=O)[nH]1` (stereo partly drawn), in the test with F2002 cell line [5], the CC50 came out at 100 µg/mL (≈ 342 µM). In the test on F2002 cell line [6], the 50% inhibitory concentration (IC50) was greater than 100 µg/mL.

Molecule `N.Nc1ccn([C@@H]2COCC2OCP(=O)(O)O)c(=O)n1` (stereo partly drawn) returned a CC50 with WI-38 [1] greater than 100 µg/mL. The IC50 in the test with WI-38 [2] is greater than 50 µg/mL.
